The test relates to M. abscessus clinical isolates. Nature of the test: Antibiotic resistance profile of clinical isolates.

Consider Trimethoprim/Sulfa, for which the “Antibiotic Susceptibility” value is recorded as 1.

For the origin of these results see patent publication US12458673B2, “Use of specific phages for the treatment of nontuberculosis mycobacteria (NTM) infections” (priority 2019, dated 2025).
